Laboratory results: patent US5126347A, “Isomeric dideoxynuclesides” (Hoffmann-La Roche Inc., priority 1989, dated 1992)

Assays:
HIV, HTLV III; RF strain = test: HIV antigen capture ELISA, virus growth in CD4+ T-lymphocytes; assay type: cell-based; settings: C8166 CD4+ T-cell line; for IC50: Human immunodeficiency virus 1, T-lymphocyte, supernatant antigen at 72 hours post-infection
Experimental: The Enzyme Linked Immuno-absorbent Assay (ELISA) was used to test compounds I and II for anti-HIV activity by measuring virus growth in CD4^+ T-lymphocytes by detecting antigen released into the tissue culture supernatant of infected cells.
High titre virus stocks [HIV, HTLV III; RF strain] were grown in H9 cells in RPMI 1640 (Flow Laboratories) supplemented with 10% fetal calf serum, penicillin (100 IU/ml) and streptomycin (100 ug/ml). Cell debris was removed by low speed centrifugation and the supernatant stored at -70° C. until required. The host cell line used in the antiviral assays was the C8166 CD4^+ T-cell line which is particularly susceptible to infection with HIV. Cells were incubated with 10 TCID50, HIV/HTLV III(RF) at 37° C. for 90 minutes and then washed three times with PBSA. Cell aliquots (2×10^5) were resuspended in 1.5 ml growth medium in 6 ml tubes and incubated at 37° C. At 72 hours post-infection, the supernatants from the cell cultures were assayed immediately for HIV antigen.
The antigen capture ELISA used was purchased from Coulter (Luton, UK). The assays were carried out on supernatants taken from infected cell cultures using the steps described by the manufacturers. In each assay the corresponding positive and negative internal controls were included together with a supernatant control taken from uninfected cells. The plates were read using the appropriate spectrophotometric detection system.

HIV (HTLV-III) = test: HIV-cytopathic Effect Inhibition Assay; assay type: cell-based; settings: survival of drug treated target cells with HIV (HTLV-III), seven days; FIGS. 1 to 3
Experimental: Compounds I and II were tested in the HIV-cytopathic Effect Inhibition Assay as described in the publication by Mitsuya, et al. Proc. Nat'l Acad. Sci., USA, 83:1911 (1986), which publication is hereby incorporated by reference.
The cells were exposed to either Compound I, Compound II, or AZT, and the survival of drug treated target cells determined seven days thereafter.
The black bars represent survival of compound treated target cells when HIV (HTLV-III) is added. The light bars represent survival of compound treated target cells in the absence of virus.

How did the “antiviral activity in this test system, compared to ddA” value (HIV, HTLV III; RF strain; antigen ELISA) turn out when `Nc1ncnc2c1ncn2[C@H]1CO[C@@H](CO)C1` [Compound I, (2R-cis)-4-(6-Amino-9H-purin-9-yl)tetrahydro-2-furanmethanol] was run?
Its value is “comparable to that of a known anti-HIV agent ddA”.

And the IC50 (HIV, HTLV III; RF strain)?
Its IC50 is 3 to 10 µM.

What about the “anti-HIV activity relative to known antiretroviral therapeutics (AZT)” value (HIV (HTLV-III)) of the same molecule?
The value was “equivalent to that of antiretroviral therapeutics known to have in vivo activity against HIV, most particularly AZT”.

With `Nc1ncnc2c1ncn2[C@H]1CC[C@@H](CO)O1` [ddA, 2',3'-dideoxyadenosine, reference compound] as the molecule, how does the IC50 (HIV, HTLV III; RF strain) read?
Its IC50 is 1 to 3 µM.

For `Nc1nc2c(ncn2[C@H]2CO[C@@H](CO)C2)c(=O)[nH]1` [Compound II], which “anti-HIV activity relative to known antiretroviral therapeutics (AZT)” value (HIV (HTLV-III)) is on record?
The value was “equivalent to that of antiretroviral therapeutics known to have in vivo activity against HIV, most particularly AZT”.
